Several values for one entry are separate records, joined by “and”; a condition that tells them apart may be missing. Equal values may be shown once. Read-outs that look alike come from different tables or passages of the source.
How the values were obtained:
[1] = biological target: T1, BTK (Homo sapiens, UniProt Q06187); experiment: TR-FRET saturation binding assay of the BTK tracer
Procedure: (§1) To measure the binding affinities between PROTACs and BTK, a time-resolved fluorescence resonance energy transfer (TR-FRET) competition binding assay was developed. A BTK tracer was synthesized by conjugating an ibrutinib-based reversible noncovalent binder with the BODIPY-FL dye (FIG. 1). […] In the presence of the BTK tracer, competition assays were performed to measure the binding affinities between BTK and its inhibitors and PROTACs. […] The very weak BTK binding affinities for PS-RC-1, PS-RC-2, PS-RC-3 and PS-RC-4 explain their minimal BTK degradation effects in cells and further support that the observed growth inhibitory effect of PS-RC-1 in Mino cells is unrelated to the BTK pathway.
Target sequence in this assay (Q06187 whole entry, species assumed): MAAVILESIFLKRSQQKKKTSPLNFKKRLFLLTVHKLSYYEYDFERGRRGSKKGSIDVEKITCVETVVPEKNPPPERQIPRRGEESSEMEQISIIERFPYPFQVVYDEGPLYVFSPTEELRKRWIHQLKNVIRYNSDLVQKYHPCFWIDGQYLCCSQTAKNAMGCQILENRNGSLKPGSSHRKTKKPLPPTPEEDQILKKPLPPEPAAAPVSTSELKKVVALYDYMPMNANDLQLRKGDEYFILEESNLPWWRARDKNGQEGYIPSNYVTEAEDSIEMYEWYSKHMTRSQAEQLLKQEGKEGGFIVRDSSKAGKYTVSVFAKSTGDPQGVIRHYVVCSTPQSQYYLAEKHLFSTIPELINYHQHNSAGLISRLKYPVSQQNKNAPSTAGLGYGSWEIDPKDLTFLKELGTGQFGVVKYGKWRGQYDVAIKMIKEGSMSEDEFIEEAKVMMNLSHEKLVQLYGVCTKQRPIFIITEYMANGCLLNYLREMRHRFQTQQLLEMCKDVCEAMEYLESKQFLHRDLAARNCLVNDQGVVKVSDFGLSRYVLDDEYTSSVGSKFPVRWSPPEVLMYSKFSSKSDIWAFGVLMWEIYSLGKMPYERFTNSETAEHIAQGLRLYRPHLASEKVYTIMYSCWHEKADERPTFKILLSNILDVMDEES

[2] = biological target: T2, GSPT1 (Homo sapiens, UniProt P15170+Q96SW2); experiment: Western blotting for GSPT1 in Mino cells; type: cell-based; settings: up to 1000 nM, 24 h, Western blot
T2 construct: host or cells: Mino
Procedure: (§2) Panel a. […] Panel b. […] Panel c. […] Panel d-e. […] Panel g.
Mino cells were seeded into the wells of six-well plates at the density of 5×10^5 cells per mL in 2 mL of complete RPMI-1640 culture medium. After overnight adaptation, cells were treated with serially diluted compounds (from 1,000-1.6 nM, 5-fold dilution) for 24 hours. After treatment, whole cell lysates for immunoblotting were prepared by pelleting Mino cells at 4° C. and 200×g for 5 minutes. The resulting cell pellets were washed once with ice-cold PBS and lysed in 1×RIPA lysis buffer (Alfa Aesar, Cat. No. J62524) supplemented with protease and phosphatase inhibitor cocktail (Thermo Fisher, Cat. No. 78430). Lysates were centrifuged at 15,000×g for 10 min at 4° C. and protein concentrations were assessed using BCA assay (Pierce, Cat. No. 23225). Same amounts of protein (30 μg) for each sample were loaded onto sodium dodecyl sulfate-polyacrylamide gel, separated by electrophoresis (Bio-Rad) at 120 V for 1.5 h and transferred to PVDF membrane using a Transblot Turbo system (Bio-Rad). […] All Western blots were subsequently processed and quantified with Imager software ImageJ and protein level was normalized to the B-actin loading controls.

[3] = biological target: T1, BTK; experiment: BTK ligand competition assay in Ramos cells (Western blotting for BTK); type: cell-based; parameters: host or cells: Ramos; settings: co-treated with 100 nM PS-2, 24 hours, PS2W at 50 μM
Target sequence in this assay (Q06187 whole entry): as the sequence (Q06187 whole entry, species assumed) above
Procedure: Ramos cells were incubated overnight, and then the indicated compounds were added and incubated for 24 hours, followed by Western blotting for BTK degradation.
Ramos cells were incubated overnight, and then the indicated compounds were added and incubated for 24 hours, followed by Western blotting for BTK degradation (FIG. 7).

[4] = biological target: T3, BTK (Mus musculus, UniProt P35991); experiment: Western blotting for BTK in A20 cells; type: cell-based; settings: A20 cells, 40, 200 and 1000 nM, 24 h, Western blot
T3 construct: host or cells: A20
Procedure: (§3) CC-220 is a IKZF1/3 degrader developed by Celgene and used for comparison.
(§4) In contrast, PS-3, whose warhead is further reduced compared with PS-2, loses its ability to function as either a BTK degrader or a potent IKZF1/3 molecular glue. To confirm this observation, BTK degradation induced by PS-1, PS-2, and PS-3 was tested in both a human B lymphocyte cell line Ramos and mouse BALB/c B cell lymphoma line A20, with DD-03-171 from the Gray group as a positive control (FIG. 5).

[5] = system: Mino cells; experiment: cells; settings: Homo sapiens, 72 h
From the text: (§8) The cell viabilities were quantified using an Alarma Blue assay.
(§9) Dataset represents an average of n=3 replicates.

[6] = biological target: T4, His-BTK (Homo sapiens, UniProt Q06187); experiment: TR-FRET competition binding assay with BTK-BODIPY tracer; settings: for binding to BTK (result in words): TRFRET assay, up to 100 μM; for IC50: TR-FRET, 2 nM His-BTK, 150 nM BTK-BODIPY tracer, 2 h incubation
T4 construct: purchased SignalChem B10-10H-10
Procedure: (§5) Panels a-b. […] Panel c. […] Panel d. […] Panel e. […] Panel f.
Time-resolved fluorescence resonance energy transfer (TR-FRET) assay was carried out to evaluate the binding of indicated compounds and BTK by competition with a BODIPY-FL labeled BTK tracer (See FIG. 1, BTK TR-FRET tracer). The assay was performed in 20 μL assay buffer (50 mM Tris, pH7.5, 0.1% Triton X-100, 0.01% BSA, and 1 mM DTT) with 0.3 nM Tb-anti-His (Cisbio, Cat. No. 61HI2TLA), 2 nM His-BTK (SignalChem, Cat. No. […] Unless specified otherwise, all assays were performed in triplicates. The assay mixtures were incubated at room temperature in the dark for 120 min, unless specified otherwise, and the signals were collected using a BioTek Synergy H1 microplate reader to measure the fluorescence emission ratio ([…]) of each well, using a 340-nm excitation filter, a 100-μs delay, and a 200-μs integration time. Raw data from the plate reader were used directly for analysis. The curve-fitting software GraphPad Prism 9 was used to generate graphs and curves and to determine IC50 values.
as §1

[7] = biological target: T1, BTK; experiment: Western blotting for BTK in Ramos cells; type: cell-based; parameters: host or cells: Ramos; settings: Ramos cells, 40, 200 and 1000 nM, 24 h, Western blot
Procedure: as §3, §4
Target sequence in this assay (Q06187 whole entry): as the sequence (Q06187 whole entry, species assumed) above

[8] = system: MM.1S cells; experiment: Alarma Blue cell viability assay, MM.1S cells; type: cell-based; settings: Homo sapiens, MM1.S, 120 h, read-out: IC50, cell growth inhibition
From the text: as §2

[9] = system: Rec-R cells; experiment: Alarma Blue cell viability assay, Rec-R cells; type: cell-based; settings: 72 h
[10] = biological target: T1, BTK; experiment: Western blotting for BTK in Mino cells; type: cell-based; parameters: host or cells: Mino; settings: up to 1000 nM, 24 h, Western blot
Procedure: Mino cells were seeded into the wells of six-well plates at the density of 5×10^5 cells per mL in 2 mL of complete RPMI-1640 culture medium. After overnight adaptation, cells were treated with serially diluted compounds (from 1,000-1.6 nM, 5-fold dilution) for 24 hours. After treatment, whole cell lysates for immunoblotting were prepared by pelleting Mino cells at 4° C. and 200×g for 5 minutes. The resulting cell pellets were washed once with ice-cold PBS and lysed in 1×RIPA lysis buffer (Alfa Aesar, Cat. No. J62524) supplemented with protease and phosphatase inhibitor cocktail (Thermo Fisher, Cat. No. 78430). Lysates were centrifuged at 15,000×g for 10 min at 4° C. and protein concentrations were assessed using BCA assay (Pierce, Cat. No. 23225). Same amounts of protein (30 μg) for each sample were loaded onto sodium dodecyl sulfate-polyacrylamide gel, separated by electrophoresis (Bio-Rad) at 120 V for 1.5 h and transferred to PVDF membrane using a Transblot Turbo system (Bio-Rad). After blocking for 1 h at room temperature in 1% BSA-TBST, the membranes were immunoblotted with the specified primary antibodies at the dilution of 1:1000 in TBST (Cell Signaling Technology: anti-BTK Cat. No. 8547, anti-IKZF1 Cat. No. 14859, anti-IKZF3 Cat. No. 15103, anti-β-actin Cat. No. 4570, Proteintech: anti-GSPT1, Cat. No. 10763-1-AP) overnight at 4° C. and the HRP-conjugated secondary antibodies (Cell Signaling, Cat. No. 7074, 1:1000 in TBST) for 1 h at room temperature. Imaging was performed using the ECL Prime chemiluminescent Western blot detection reagents (Kindle Biosciences, Cat. No. R1100) by visualization of the blots with an Imager (Kindle Biosciences, Cat. No. D1001). All Western blots were subsequently processed and quantified with Imager software ImageJ and protein level was normalized to the B-actin loading controls.
Target sequence in this assay (Q06187 whole entry): as the sequence (Q06187 whole entry, species assumed) above

[11] = system: Jeko-1 cells; experiment: Alarma Blue cell viability assay, Jeko-1 cells; type: cell-based; settings: 72 h
[12] = system: Mino cells; settings: Mino cells pretreated with PS-RC-Ctrl 2 and 10 μM for 2 h
From the text: as §8, §9

[13] = biological target: T5, IKZF1-nLuc (Homo sapiens, UniProt Q13422+Q96SW2); experiment: IKZF1-nLuc endpoint degradation assay in HEK-293T cells; type: cell-based; settings: HEK-293T, read-out: IKZF1-nLuc Endpoint Dmax
T5 construct: Addgene (vector) HsCD00512327; pLenti6.2-ccdB-Nanoluc 87078; host or cells: HEK-293T17
Procedure: as §2
(§6) The nanoluc activity was determined using the furimazine substrate (Promega, Cat. No. N1110). Briefly, after 4 h incubation of indicated compounds, cells were directly lysed by addition of 100 μL of nanoluciferase detection solution, containing lysis buffer and furimazine (1/50 dilution). For the 24-hour treatment group, the old medium was replaced with 100 μL fresh opti-MEM, followed by the addition of equal volume of lysis buffer plus furimazine (1/50 dilution).

[14] = biological target: T6, IKZF1 (Homo sapiens, UniProt Q13422+Q96SW2); experiment: Western blotting for IKZF1 in Mino cells; type: cell-based; settings: 24 h, Western blot, read-out: IKZF1-WB Endpoint Dmax
T6 construct: host or cells: Mino
Procedure: as §2
(§7) After treatment, whole cell lysates for immunoblotting were prepared by pelleting Mino cells at 4° C. and 200×g for 5 minutes. […] Imaging was performed using the ECL Prime chemiluminescent Western blot detection reagents (Kindle Biosciences, Cat. No. R1100) by visualization of the blots with an Imager (Kindle Biosciences, Cat. No. D1001). All Western blots were subsequently processed and quantified with Imager software ImageJ and protein level was normalized to the B-actin loading controls.

[15] = biological target: T7, IKZF3 (Homo sapiens, UniProt Q96SW2+Q9UKT9); experiment: Western blotting for IKZF3 in Mino cells; type: cell-based; settings: 24 h, Western blot, read-out: IKZF3-WB Endpoint Dmax
T7 construct: host or cells: Mino
Procedure: as §2, §7

[16] = biological target: T8, IKZF3-nLuc (Homo sapiens, UniProt Q96SW2+Q9UKT9); experiment: IKZF3-nLuc endpoint degradation assay in HEK-293T cells; type: cell-based; settings: HEK-293T, read-out: IKZF3-nLuc Endpoint Dmax
T8 construct: Addgene (vector) HsCD00513042; pLenti6.2-ccdB-Nanoluc 87078; host or cells: HEK-293T17
Procedure: as §2, §6

[17] = biological target: T5, IKZF1-nLuc; experiment: IKZF1-nLuc degradation kinetics assay in HEK-293T cells; type: cell-based; settings: HEK-293T, read-out: IKZF1-nLuc Degradation Kinetics Dmax
From the text: as §2

[18] = biological target: T8, IKZF3-nLuc; experiment: IKZF3-nLuc degradation kinetics assay in HEK-293T cells; type: cell-based; settings: HEK-293T, read-out: IKZF3-nLuc Degradation Kinetics Dmax
From the text: as §2

[19] = system: MOLM-14 cells; experiment: Alarma Blue cell viability assay, MOLM14 cells; type: cell-based; settings: Homo sapiens, 72 h, read-out: IC50, cell growth inhibition
From the text: as §5

T4 sequence (Q06187 whole entry): as the sequence (Q06187 whole entry, species assumed) above
T5 sequence (Q13422 whole entry): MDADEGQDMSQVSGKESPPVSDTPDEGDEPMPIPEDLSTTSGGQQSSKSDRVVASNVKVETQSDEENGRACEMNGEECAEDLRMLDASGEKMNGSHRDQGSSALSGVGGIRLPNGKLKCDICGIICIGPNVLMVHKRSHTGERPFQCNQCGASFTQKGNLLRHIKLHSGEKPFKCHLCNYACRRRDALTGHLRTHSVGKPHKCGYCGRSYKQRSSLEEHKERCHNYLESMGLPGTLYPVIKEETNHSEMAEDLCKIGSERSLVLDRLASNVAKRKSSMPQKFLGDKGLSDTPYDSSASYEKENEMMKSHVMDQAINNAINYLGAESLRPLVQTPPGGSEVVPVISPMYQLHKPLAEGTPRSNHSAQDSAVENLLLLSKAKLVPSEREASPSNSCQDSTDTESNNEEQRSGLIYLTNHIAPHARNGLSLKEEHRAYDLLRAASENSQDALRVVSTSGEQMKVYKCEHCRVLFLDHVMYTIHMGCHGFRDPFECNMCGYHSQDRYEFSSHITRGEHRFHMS
T5 sequence (Q96SW2 whole entry): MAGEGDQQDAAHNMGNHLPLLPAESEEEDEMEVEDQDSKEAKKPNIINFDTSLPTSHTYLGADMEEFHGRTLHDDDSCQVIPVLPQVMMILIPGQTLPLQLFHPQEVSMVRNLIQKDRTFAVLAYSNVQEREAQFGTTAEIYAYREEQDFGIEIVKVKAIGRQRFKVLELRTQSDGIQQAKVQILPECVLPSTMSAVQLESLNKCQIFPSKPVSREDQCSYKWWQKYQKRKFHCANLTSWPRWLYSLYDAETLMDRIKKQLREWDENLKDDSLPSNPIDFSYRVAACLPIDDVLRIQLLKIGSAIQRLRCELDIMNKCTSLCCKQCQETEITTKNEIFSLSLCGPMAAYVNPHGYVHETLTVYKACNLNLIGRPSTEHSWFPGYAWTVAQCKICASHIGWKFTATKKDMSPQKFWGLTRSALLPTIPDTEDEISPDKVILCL
T5 sequence (Q16531 whole entry partner): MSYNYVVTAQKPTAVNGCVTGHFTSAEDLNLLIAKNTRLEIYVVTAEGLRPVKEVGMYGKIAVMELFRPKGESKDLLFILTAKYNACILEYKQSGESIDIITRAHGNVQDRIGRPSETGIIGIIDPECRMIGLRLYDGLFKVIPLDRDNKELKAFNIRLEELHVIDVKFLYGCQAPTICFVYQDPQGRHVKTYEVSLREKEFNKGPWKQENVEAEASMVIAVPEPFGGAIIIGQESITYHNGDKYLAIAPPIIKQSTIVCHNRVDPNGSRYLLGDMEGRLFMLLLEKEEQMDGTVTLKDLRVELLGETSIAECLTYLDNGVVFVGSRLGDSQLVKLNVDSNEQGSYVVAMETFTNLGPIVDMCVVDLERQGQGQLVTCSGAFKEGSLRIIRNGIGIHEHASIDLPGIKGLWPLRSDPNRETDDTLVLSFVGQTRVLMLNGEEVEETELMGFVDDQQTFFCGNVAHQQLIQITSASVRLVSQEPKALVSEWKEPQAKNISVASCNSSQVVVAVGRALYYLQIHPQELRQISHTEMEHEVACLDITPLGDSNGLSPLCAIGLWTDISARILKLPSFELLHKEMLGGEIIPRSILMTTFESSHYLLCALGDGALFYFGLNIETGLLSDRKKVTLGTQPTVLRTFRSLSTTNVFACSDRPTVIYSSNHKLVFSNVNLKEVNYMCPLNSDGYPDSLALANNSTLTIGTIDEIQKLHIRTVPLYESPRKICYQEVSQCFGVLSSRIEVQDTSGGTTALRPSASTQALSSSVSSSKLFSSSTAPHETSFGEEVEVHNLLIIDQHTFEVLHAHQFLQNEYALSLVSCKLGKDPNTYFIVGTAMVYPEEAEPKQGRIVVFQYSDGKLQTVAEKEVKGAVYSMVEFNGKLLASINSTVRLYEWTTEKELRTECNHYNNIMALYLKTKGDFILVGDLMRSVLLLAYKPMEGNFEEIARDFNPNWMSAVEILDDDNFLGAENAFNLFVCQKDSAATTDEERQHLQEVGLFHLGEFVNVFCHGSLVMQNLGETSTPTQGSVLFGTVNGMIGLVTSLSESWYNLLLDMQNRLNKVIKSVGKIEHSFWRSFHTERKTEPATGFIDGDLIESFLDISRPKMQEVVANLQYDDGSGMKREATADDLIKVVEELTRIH
T8 sequence (Q9UKT9 whole entry): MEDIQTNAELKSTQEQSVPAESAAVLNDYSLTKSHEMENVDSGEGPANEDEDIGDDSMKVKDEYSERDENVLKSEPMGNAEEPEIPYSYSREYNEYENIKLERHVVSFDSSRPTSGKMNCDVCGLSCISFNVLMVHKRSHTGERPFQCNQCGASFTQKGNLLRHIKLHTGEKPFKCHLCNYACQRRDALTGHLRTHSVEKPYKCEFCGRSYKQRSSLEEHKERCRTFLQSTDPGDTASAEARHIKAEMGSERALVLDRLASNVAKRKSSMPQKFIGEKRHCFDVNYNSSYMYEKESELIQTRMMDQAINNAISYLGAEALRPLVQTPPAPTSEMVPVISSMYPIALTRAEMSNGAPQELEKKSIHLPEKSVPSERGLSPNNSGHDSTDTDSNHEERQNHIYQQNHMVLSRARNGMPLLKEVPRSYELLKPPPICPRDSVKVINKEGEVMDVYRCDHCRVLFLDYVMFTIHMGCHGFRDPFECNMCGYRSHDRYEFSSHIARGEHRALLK
T8 sequence (Q96SW2 whole entry): as the sequence (Q96SW2 whole entry) above
T8 sequence (Q16531 whole entry partner): as the sequence (Q16531 whole entry partner) above
T2 sequence (P15170 whole entry): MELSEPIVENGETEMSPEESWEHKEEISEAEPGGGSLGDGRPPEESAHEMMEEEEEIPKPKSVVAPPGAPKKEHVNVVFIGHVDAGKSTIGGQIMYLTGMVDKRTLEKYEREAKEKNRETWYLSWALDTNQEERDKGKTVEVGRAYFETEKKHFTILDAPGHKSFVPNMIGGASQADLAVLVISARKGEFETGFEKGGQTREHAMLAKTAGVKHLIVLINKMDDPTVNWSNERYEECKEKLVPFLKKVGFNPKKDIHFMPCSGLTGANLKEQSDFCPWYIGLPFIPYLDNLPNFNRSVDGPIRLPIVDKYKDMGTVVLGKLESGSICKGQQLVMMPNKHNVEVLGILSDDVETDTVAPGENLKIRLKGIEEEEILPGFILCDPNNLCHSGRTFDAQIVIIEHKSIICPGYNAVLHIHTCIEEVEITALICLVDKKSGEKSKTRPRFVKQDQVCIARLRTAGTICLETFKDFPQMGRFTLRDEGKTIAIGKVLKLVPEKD
T2 sequence (Q96SW2 whole entry): as the sequence (Q96SW2 whole entry) above
T2 sequence (Q16531 whole entry partner): as the sequence (Q16531 whole entry partner) above
T3 sequence (P35991 whole entry): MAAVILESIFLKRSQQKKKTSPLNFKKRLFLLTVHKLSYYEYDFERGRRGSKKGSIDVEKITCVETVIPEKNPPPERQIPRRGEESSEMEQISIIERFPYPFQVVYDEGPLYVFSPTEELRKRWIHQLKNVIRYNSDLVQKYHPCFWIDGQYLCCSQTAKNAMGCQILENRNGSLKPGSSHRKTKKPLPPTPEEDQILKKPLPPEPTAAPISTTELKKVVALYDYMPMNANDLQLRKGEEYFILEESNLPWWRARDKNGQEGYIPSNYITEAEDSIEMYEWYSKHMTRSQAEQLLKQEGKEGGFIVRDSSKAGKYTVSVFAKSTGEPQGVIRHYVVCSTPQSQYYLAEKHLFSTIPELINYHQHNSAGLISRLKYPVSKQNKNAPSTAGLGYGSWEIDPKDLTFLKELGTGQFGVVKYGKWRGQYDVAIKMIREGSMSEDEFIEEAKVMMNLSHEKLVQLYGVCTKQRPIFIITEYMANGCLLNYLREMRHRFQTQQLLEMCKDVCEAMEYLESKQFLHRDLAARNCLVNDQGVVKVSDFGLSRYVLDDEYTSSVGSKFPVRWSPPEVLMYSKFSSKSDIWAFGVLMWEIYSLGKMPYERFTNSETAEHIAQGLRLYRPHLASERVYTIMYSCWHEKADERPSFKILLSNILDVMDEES
T6 sequence (Q13422 whole entry): as the sequence (Q13422 whole entry) above
T6 sequence (Q96SW2 whole entry): as the sequence (Q96SW2 whole entry) above
T6 sequence (Q16531 whole entry partner): as the sequence (Q16531 whole entry partner) above

SMILES: CC1=CC(C)=[N+]2C1=Cc1ccc(CCC(=O)NCCCN(C)CCCC(=O)N3CCC[C@@H](n4nc(-c5ccc(Oc6ccccc6)cc5)c5c(N)ncnc54)C3)n1[B-]2(F)F [BTK tracer]
- Kd [1]: 155 nM

SMILES: Cc1ccc(NC(=O)NCc2ccc3c(c2)CN(C2CCC(=O)NC2=O)C3=O)cc1Cl (stereo not drawn) [CC-885, reference compound]
- GSPT1 degradation (result in words) [2]: potent GSPT1 degrader

SMILES: CN1CCN(c2ccc(Nc3nccc(Oc4ccccc4)n3)cc2)CC1 [PS2W]
- competition with PS-2 induced BTK degradation (BTK ligand) [3]: cannot completely compete out

SMILES: O=C1CCC(N2C(=O)c3cccc(NCC(=O)N4CCN(c5ccc(Nc6nc(Oc7ccccc7)c7occc7n6)cc5)CC4)c3C2=O)C(=O)N1 (stereo not drawn) [PS-1, 2-(2,6-Dioxopiperidin-3-yl)-4-((2-oxo-2-(4-(4-((4-phenoxyfuro[3,2-d]pyrimidin-2-yl)amino)phenyl)piperazin-1-yl)ethyl)amino)isoindoline-1,3-dione]
- BTK degradation (result in words) [4]: very weak or no BTK degradation
- IC50 ([5]; read-out: IC50, cell growth inhibition / cell viability, Mino cells, 72 h): 16 nM
- binding to BTK (result in words) [6]: almost no binding to BTK
- BTK degradation (result in words) [7]: very weak or no BTK degradation
- IC50 [8]: 3 nM

SMILES: O=C1CCC(N2C(=O)c3cccc(NCC(=O)N4CCN(c5ccc(Nc6ncccn6)cc5)CC4)c3C2=O)C(=O)N1 (stereo not drawn) [PS-3, 2-(2,6-Dioxopiperidin-3-yl)-4-((2-oxo-2-(4-(4-(pyrimidin-2-ylamino)phenyl)piperazin-1-yl)ethyl)amino) isoindoline-1,3-dione]
- BTK degradation (result in words) [4]: very weak or no BTK degradation
- BTK degradation (result in words) [7]: very weak or no BTK degradation

SMILES: CC(C)(C)/C=C(\C#N)C(=O)Nc1cccc(Oc2nc(Nc3ccc(N4CCN(C(=O)CNc5cccc6c5C(=O)N(C5CCC(=O)NC5=O)C6=O)CC4)cc3)nc3ccoc23)c1 (stereo not drawn) [PS-RC-1, (E)-2-cyano-N-(3-((2-((4-(4-((2-(2,6-dioxopiperidin-3-yl)-1,3-dioxoisoindolin-4-yl)glycyl)piperazin-1-yl)phenyl)amino)furo[3,2-d]pyrimidin-4-yl)oxy)phenyl)-4,4-dimethylpent-2-enamide]
- response of cell growth to compound [9]: poorly respond
- BTK degradation (result in words) [10]: none of the tested PROTACs induce appreciable BTK degradation
- GSPT1 degradation (result in words) [2]: does not degrade GSPT1
- response of cell growth to compound [11]: poorly respond
- IC50 shift upon PS-RC-Ctrl pre-treatment [12]: An appreciable IC50 shift was not observed

SMILES: Nc1cccc2c1C(=O)N(C1CCC(=O)NC1=O)C2=O (stereo not drawn) [Pomalidomide, reference compound]
- response of cell growth to compound [9]: only Mino cells are responsive
- Dmax [13]: 90%
- Dmax [14]: 96%
- Dmax [15]: 96%
- Dmax [16]: 94%
- Dmax at 0.04 µM [17]: 53%
- Dmax at 0.2 µM [17]: 80%
- IC50 ([5]; read-out: IC50, cell growth inhibition / cell viability): 329 nM
- Dmax at 0.04 µM [18]: 52%
- Dmax at 0.2 µM [18]: 64%
- response of cell growth to compound [11]: only Mino cells are responsive

SMILES: C=CC(=O)Nc1cccc(Oc2nc(Nc3ccc(N4CCN(C)CC4)cc3)nc3ccoc23)c1 [Poseltinib]
- IC50 [19]: 2900 nM
- IC50 [6]: 1.21 nM
- IC50 ([6]; listed as poseltinib): 1.1 nM and 1.2 nM
- binding to BTK (result in words) [6]: binding affinity in the nM range

Source: patent US20240383910A1, “SMALL MOLECULE BTK DEGRADERS AND METHODS OF USE THEREOF” (Baylor College of Medicine, priority 2023, published 2024)
